From patent US20240059703A1 (AMGEN INC., priority 2021, published 2024) come the findings set out here.

One experiment deals with KRAS G12C (Homo sapiens (Human), UniProt P01116, C118A/G12C). The experiment is described as follows: 2 h coupled exchange assay. The class given is biochemical. Conditions: Avg 2 h Coupled exchange IC50, 2 h compound pre-incubation, SOS-mediated nucleotide exchange. On the procedure: The term “2 h coupled exchange assay” or “20 h coupled exchange assay” as used herein refers to the assay described in the Section entitled “BIOLOGICAL EVALUATION.”
Sequence of KRAS G12C (P01116 other isoform, or with tags, fused parts or gaps G12C/C118A): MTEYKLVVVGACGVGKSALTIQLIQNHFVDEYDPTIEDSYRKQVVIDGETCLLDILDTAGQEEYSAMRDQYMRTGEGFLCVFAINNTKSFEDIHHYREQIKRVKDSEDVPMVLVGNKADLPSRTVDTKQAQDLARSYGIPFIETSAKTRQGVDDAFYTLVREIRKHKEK

Experiment [1] deals with MIA PaCa-2 (human pancreatic carcinoma) cells. The experiment is described as follows: Cell Viability Assay (CellTiter-Glo), MIA PaCa-2. The experiment is classed as cell-based. The conditions noted are these: Homo sapiens, MIA PaCa-2, 72 h. How it is done: Serially-diluted compound or DMSO was added to the cells, and plates were incubated at 37° C., 5% CO2 for 72 h. Cell viability was measured using a CellTiter-Glo® Luminescent Cell Viability Assay kit (Promega) according to the manufacturer's protocol. The luminescence signal of treated samples was normalized to DMSO control, and data were analyzed using a 4-parameter logistic model to calculate IC50 values.
On the technique in general: Cellular ATP, detected with luciferase, serves as a proxy for viable cell number.

Experiment [2] concerns A549 (human lung carcinoma) cells. The experiment is described as follows: Cell Viability Assay (CellTiter-Glo), A549. The experiment is classed as cell-based. The conditions noted are these: Homo sapiens, A549, 72 h. Summed up:
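RPMI 1640/10% FBS; seed 1.67E+04 cells/mL, o/n 37° C., 5% CO2; serial-dilution cmpd 72 h; CellTiter-Glo luminescence vs DMSO; 4-parameter logistic fit → IC50.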

Take `C=CC(=O)N1CC2(CCN(c3cc4ccccc4c(-c4c(C)ccc5[nH]ncc45)c3C#N)C2)C1` [Example 1-2, 3-(2-acryloyl-2,6-diazaspiro[3.4]octan-6-yl)-1-(5-methyl-1H-indazol-4-yl)-2-naphthonitrile]: the half-maximal inhibitory concentration (IC50) against KRAS G12C was found to be 158 nM; in experiment [1], 0.58 µM; in experiment [2], 3.71 µM.

`C=CC(=O)N1CC2(CCN(c3nc4c(c(-c5c(C)ccc6[nH]ncc56)c3C#N)CCC4)C2)C1` [Example 1-3, 4-(5-methyl-1H-indazol-4-yl)-2-(2-(2-propenoyl)-2,6-diazaspiro[3.4]octan-6-yl)-6,7-dihydro-5H-cyclopenta[b]pyridine-3-carbonitrile]: the 50% inhibitory concentration (IC50) was 154 nM on KRAS G12C, 0.847 µM in experiment [1] and 7.42 µM in experiment [2].

Consider `C=CC(=O)N1CC2(CCN(c3nc4c(F)cccc4c(-c4c(C)ccc5[nH]ncc45)c3C#N)C2)C1` [Example 1-4, 8-fluoro-4-(5-methyl-1H-indazol-4-yl)-2-(2-(2-propenoyl)-2,6-diazaspiro[3.4]octan-6-yl)-3-quinolinecarbonitrile], for which the IC50 against KRAS G12C is 290 nM; in experiment [1], 1.39 µM; in experiment [2], 4.94 µM.

Consider `C=CC(=O)N1CC2(CCN(c3cn4ccnc4c(-c4c(C)ccc5[nH]ncc45)c3C#N)C2)C1` [Example 1-5], for which the IC50 against KRAS G12C turned out to be 520 nM; in experiment [1] it was 1.63 µM; in experiment [2], 50 µM.

On to `C=CC(=O)N1CC2(CCN(c3nc4c(C)cccc4c(-c4c(C)ccc5[nH]ncc45)c3C#N)C2)C1` [Example 1-6, 8-methyl-4-(5-methyl-1H-indazol-4-yl)-2-(2-(2-propenoyl)-2,6-diazaspiro[3.4]octan-6-yl)-3-quinolinecarbonitrile], for which the IC50 at KRAS G12C stood at 1890 nM; in experiment [1] it was 1.14 µM; in experiment [2], 6.44 µM.

On to `C=CC(=O)N1CC2(CCN(c3nc4c(c(-c5cccc6cccc(C)c56)n3)CCCC4)C2)C1` [Example 1-7, 1-(6-(4-(8-methyl-1-naphthalenyl)-5,6,7,8-tetrahydro-2-quinazolinyl)-2,6-diazaspiro[3,4]octan-2-yl)-2-propen-1-one], for which the 50% inhibitory concentration (IC50) on KRAS G12C is 997 nM; in experiment [1] it was greater than 5 µM; in experiment [2] it was greater than 5 µM.

Regarding `C=CC(=O)N1CC2(CCN(c3nc4c(c(-c5cccc6cccc(Cl)c56)n3)CCCC4)C2)C1` [Example 1-9, 1-(6-(4-(8-chloro-1-naphthalenyl)-5,6,7,8-tetrahydro-2-quinazolinyl)-2,6-diazaspiro[3.4]octan-2-yl)-2-propen-1-one], the IC50 against KRAS G12C is 4580 nM; in experiment [1], 18.1 µM; in experiment [2], greater than 25 µM.

As to `C=CC(=O)N1CC2(CCN(c3nc4c(c(-c5c(C)ccc6[nH]ncc56)n3)CCC(C)C4)C2)C1` (stereo not drawn) [Example 1-11, 1-(6-((7)-7-methyl-4-(5-methyl-1H-indazol-4-yl)-5,6,7,8-tetrahydro-2-quinazolinyl)-2,6-diazaspiro[3.4]octan-2-yl)-2-propen-1-one], the half-maximal inhibitory concentration (IC50) is 3090 nM at KRAS G12C, greater than 5 µM in experiment [1] and greater than 5 µM in experiment [2].

With `C=CC(=O)N1CC2(CCN(c3nc4c(c(-c5c(C)ccc6ccccc56)n3)CCCC4)C2)C1` [Example 1-12, 1-(6-(4-(2-methyl-1-naphthalenyl)-5,6,7,8-tetrahydro-2-quinazolinyl)-2,6-diazaspiro[3.4]octan-2-yl)-2-propen-1-one], the half-maximal inhibitory concentration (IC50) at KRAS G12C was 2590 nM; in experiment [1], 5.39 µM; in experiment [2], 7.23 µM.

`C=CC(=O)N1CC2(C1)CN(c1nc3c(F)cccc3c(-c3c(C)ccc4[nH]ncc34)c1C#N)CC2F` (stereo not drawn) [Example 1-13, 8-fluoro-2-((8)-8-fluoro-2-(2-propenoyl)-2,6-diazaspiro[3.4]octan-6-yl)-4-(5-methyl-1H-indazol-4-yl)-3-quinolinecarbonitrile]: the values for the IC50 (at KRAS G12C; in experiment [1]; in experiment [2]) were 601 nM, 1.88 µM and 3.12 µM, respectively.

With `C#CC(=O)N1CC2(CCN(c3nc4c(F)cccc4c(-c4c(C)ccc5[nH]ncc45)c3C#N)C2)C1` [Example 1-14, 8-fluoro-4-(5-methyl-1H-indazol-4-yl)-2-(2-(2-propynoyl)-2,6-diazaspiro[3.4]octan-6-yl)-3-quinolinecarbonitrile], the 50% inhibitory concentration (IC50) on KRAS G12C came to 327 nM; in experiment [1] it was 0.069 µM; in experiment [2], 1.09 µM.

Consider `C=CC(=O)N1CC2(CCN(c3nc(-c4c(C)ccc5[nH]ncc45)c4c(n3)C(C)CCC4)C2)C1` (stereo not drawn) [Example 1-15, 1-(6-((8)-8-methyl-4-(5-methyl-1H-indazol-4-yl)-5,6,7,8-tetrahydro-2-quinazolinyl)-2,6-diazaspiro[3.4]octan-2-yl)-2-propen-1-one], for which the concentration for half-maximal inhibition (IC50) is 9060 nM at KRAS G12C, greater than 5 µM in experiment [1] and greater than 5 µM in experiment [2].

Consider `C=CC(=O)N1CC2(CCN(c3nc4c(c(-c5c(C)ccc6cn[nH]c56)n3)CCCC4)C2)C1` [Example 1-16, 1-(6-(4-(6-methyl-1H-indazol-7-yl)-5,6,7,8-tetrahydro-2-quinazolinyl)-2,6-diazaspiro[3.4]octan-2-yl)-2-propen-1-one], for which the concentration for half-maximal inhibition (IC50) against KRAS G12C is 6720 nM; in experiment [1], 10.3 µM; in experiment [2] it was greater than 25 µM.

On to `C=CC(=O)N1CC2(CCN(c3nc4c(c(-c5c(C)ccc6[nH]ncc56)n3)CCCC4)C2)C1` [Example 1-17, 1-(6-(4-(5-methyl-1H-indazol-4-yl)-5,6,7,8-tetrahydro-2-quinazolinyl)-2,6-diazaspiro[3.4]octan-2-yl)-2-propen-1-one], for which the figures for the IC50 (on KRAS G12C; in experiment [1]; in experiment [2]) were 5760 nM, greater than 5 µM and greater than 5 µM, respectively.

As to `C=CC(=O)N1CC2(CCN(c3nc4c(c(-c5cc(O)ccc5Cl)n3)CCCC4)C2)C1` [Example 1-18, 1-(6-(4-(2-chloro-5-hydroxyphenyl)-5,6,7,8-tetrahydro-2-quinazolinyl)-2,6-diazaspiro[3.4]octan-2-yl)-2-propen-1-one], the 50% inhibitory concentration (IC50) came out at 8460 nM against KRAS G12C, 8.67 µM in experiment [1] and 9.46 µM in experiment [2].

Regarding `C=CC(=O)N1CC2(CCN(c3nc4c(c(-c5cccc6cc(O)ccc56)n3)CCCC4)C2)C1` [Example 1-21, 1-(6-(4-(6-hydroxy-1-naphthalenyl)-5,6,7,8-tetrahydro-2-quinazolinyl)-2,6-diazaspiro[3.4]octan-2-yl)-2-propen-1-one], the IC50 was 435 nM against KRAS G12C, greater than 5 µM in experiment [1] and greater than 5 µM in experiment [2].

As to `C=CC(=O)N1CC2(CCN(c3nc(-c4cc(O)cc5ccccc45)c4ncc(C)cc4n3)C2)C1` [Example 1-22, 1-(6-(4-(3-hydroxy-1-naphthalenyl)-7-methylpyrido[3,2-d]pyrimidin-2-yl)-2,6-diazaspiro[3.4]octan-2-yl)-2-propen-1-one], the IC50 was 1140 nM against KRAS G12C, 4.26 µM in experiment [1] and greater than 25 µM in experiment [2].

`C=CC(=O)N1CC2(CCN(c3nc4c(c(-c5cccc6sc(N)nc56)n3)CCCC4)C2)C1` [Example 1-23, 1-(6-(4-(2-amino-1,3-benzothiazol-4-yl)-5,6,7,8-tetrahydro-2-quinazolinyl)-2,6-diazaspiro[3,4]octan-2-yl)-2-propen-1-one]: the results for the IC50 (against KRAS G12C; in experiment [1]; in experiment [2]) were 1220 nM, 5.27 µM and 10.5 µM, respectively.

For the compound `C=CC(=O)N1CC2(CCN(c3nc4c(c(-c5cccc(Cl)c5Cl)n3)CCCC4)C2)C1` [Example 1-24, 1-(6-(4-(2,3-dichlorophenyl)-5,6,7,8-tetrahydro-2-quinazolinyl)-2,6-diazaspiro[3.4]octan-2-yl)-2-propen-1-one], the IC50 on KRAS G12C worked out at 4250 nM; in experiment [1], 8.29 µM; in experiment [2], 10.6 µM.

With `C=CC(=O)N1CC2(CCN(c3nc4c(c(-c5c(C)ccc6cnn(C)c56)n3)CCCC4)C2)C1` [Example 1-25, 1-(6-(4-(1,6-dimethyl-1H-indazol-7-yl)-5,6,7,8-tetrahydro-2-quinazolinyl)-2,6-diazaspiro[3.4]octan-2-yl)-2-propen-1-one], the IC50 is 2600 nM against KRAS G12C, 8.86 µM in experiment [1] and 20.3 µM in experiment [2].

Regarding `C=CC(=O)N1CC2(CCN(c3nc4c(c(-c5cccc(C)c5C)n3)CCCC4)C2)C1` [Example 1-26, 1-(6-(4-(2,3-dimethylphenyl)-5,6,7,8-tetrahydro-2-quinazolinyl)-2,6-diazaspiro[3.4]octan-2-yl)-2-propen-1-one], the IC50 at KRAS G12C worked out at 3980 nM; in experiment [1], 9.82 µM; in experiment [2] it was 13.8 µM.

Consider `C=CC(=O)N1CC2(CCN(c3nc4c(c(-c5cccc(C)c5Cl)n3)CCCC4)C2)C1` [Example 1-27, 1-(6-(4-(2-chloro-3-methylphenyl)-5,6,7,8-tetrahydro-2-quinazolinyl)-2,6-diazaspiro[3.4]octan-2-yl)-2-propen-1-one], for which the half-inhibitory concentration (IC50) is 5170 nM against KRAS G12C, 11.8 µM in experiment [1] and 20.8 µM in experiment [2].

Consider `C=CC(=O)N1CC2(CCN(c3nc(-c4cccc5cccc(C)c45)c4c(n3)N(C)CCO4)C2)C1` [Example 1-28, 1-(6-(8-methyl-4-(8-methyl-1-naphthalenyl)-7,8-dihydro-6H-pyrimido[5,4-b][1,4]oxazin-2-yl)-2,6-diazaspiro[3.4]octan-2-yl)-2-propen-1-one], for which the IC50 was 2980 nM at KRAS G12C, 9.36 µM in experiment [1] and 11.5 µM in experiment [2].

In general, IC50 refers to the concentration that gives 50% inhibition. A low value points to higher potency.
